# Experiments:
# Format in all cases: functional
# [1] = species: Homo sapiens; assay: Mitogen-induced human lymphocyte proliferation measured by incorporation of [3H]thymidine in lymphocytes with Pokeweed mitogen at a concentration of 1/5000 microg with compound at 400 uM
# [2] = species: Homo sapiens; assay: Mitogen-induced human lymphocyte proliferation measured by incorporation of [3H]thymidine in lymphocytes with Phytohemagglutininin at a concentration of 1 ug with out compound
# [3] = species: Homo sapiens; assay: Mitogen-induced human lymphocyte proliferation measured by incorporation of [3H]thymidine in lymphocytes with Phytohemagglutininin at a concentration of 0.125 microg with compound at 10 uM
# [4] = species: Homo sapiens; assay: Mitogen-induced human lymphocyte proliferation measured by incorporation of [3H]thymidine in lymphocytes with Phytohemagglutininin at a concentration of 0.125 microg with compound at 50 uM
# [5] = species: Homo sapiens; assay: Mitogen-induced human lymphocyte proliferation measured by incorporation of [3H]thymidine in lymphocytes with Phytohemagglutininin at a concentration of 1 ug with compound at 50 uM
# [6] = species: Homo sapiens; assay: Mitogen-induced human lymphocyte proliferation measured by incorporation of [3H]thymidine in lymphocytes with Phytohemagglutininin at a concentration of 0.125 microg with compound at 400 uM
# [7] = species: Homo sapiens; assay: Mitogen-induced human lymphocyte proliferation measured by incorporation of [3H]thymidine in lymphocytes with Concanavalin A (Con A) at a concentration of 0.25 microg with compound at 10 uM
# [8] = species: Homo sapiens; assay: Mitogen-induced human lymphocyte proliferation measured by incorporation of [3H]thymidine in lymphocytes with Phytohemagglutininin at a concentration of 1 ug with compound at 10 uM
# [9] = species: Homo sapiens; assay: Mitogen-induced human lymphocyte proliferation measured by incorporation of [3H]thymidine in lymphocytes with Phytohemagglutininin at a concentration of 0.125 microg with compound at 1 uM
# [10] = species: Homo sapiens; assay: Mitogen-induced human lymphocyte proliferation measured by incorporation of [3H]thymidine in lymphocytes with Pokeweed mitogen at a concentration of 1/1250 microg with compound at 10 uM
# [11] = species: Homo sapiens; assay: Mitogen-induced human lymphocyte proliferation measured by incorporation of [3H]thymidine in lymphocytes with Phytohemagglutininin at a concentration of 1 ug with compound at 400 uM
# [12] = species: Homo sapiens; assay: Mitogen-induced human lymphocyte proliferation measured by incorporation of [3H]thymidine in lymphocytes with Pokeweed mitogen at a concentration of 1/5000 microg with compound at 50 uM
# [13] = species: Homo sapiens; assay: Mitogen-induced human lymphocyte proliferation measured by incorporation of [3H]thymidine in lymphocytes with Phytohemagglutininin at a concentration of 0.125 microg with out compound
# [14] = species: Homo sapiens; assay: Mitogen-induced human lymphocyte proliferation measured by incorporation of [3H]thymidine in lymphocytes with Concanavalin A (Con A) at a concentration of 0.25 microg with compound at 50 uM
# [15] = species: Homo sapiens; assay: Mitogen-induced human lymphocyte proliferation measured by incorporation of [3H]thymidine in lymphocytes with Phytohemagglutininin at a concentration of 0.125 microg with compound at 0.1 uM
# [16] = species: Homo sapiens; assay: Mitogen-induced human lymphocyte proliferation measured by incorporation of [3H]thymidine in lymphocytes with Pokeweed mitogen at a concentration of 1/5000 microg with compound at 10 uM
# [17] = species: Homo sapiens; assay: Mitogen-induced human lymphocyte proliferation measured by incorporation of [3H]thymidine in lymphocytes with Pokeweed mitogen at a concentration of 1/1250 microg with compound at 1 uM
# [18] = species: Homo sapiens; assay: Mitogen-induced human lymphocyte proliferation measured by incorporation of [3H]thymidine in lymphocytes with Concanavalin A (Con A) at a concentration of 0.25 microg with out compound
# [19] = species: Homo sapiens; assay: Mitogen-induced human lymphocyte proliferation measured by incorporation of [3H]thymidine in lymphocytes with Pokeweed mitogen at a concentration of 1/1250 microg with compound at 50 uM
# [20] = species: Homo sapiens; assay: Mitogen-induced human lymphocyte proliferation measured by incorporation of [3H]thymidine in lymphocytes with Pokeweed mitogen at a concentration of 1/5000 microg with compound at 1 uM
# [21] = species: Homo sapiens; assay: Mitogen-induced human lymphocyte proliferation measured by incorporation of [3H]thymidine in lymphocytes with Pokeweed mitogen at a concentration of 1/5000 microg with out compound
# [22] = species: Homo sapiens; assay: Mitogen-induced human lymphocyte proliferation measured by incorporation of [3H]-thymidine in lymphocytes with Pokeweed mitogen at a concentration of 1/1250 microg with out compound
# [23] = species: Homo sapiens; assay: Mitogen-induced human lymphocyte proliferation measured by incorporation of [3H]thymidine in lymphocytes with Pokeweed mitogen at a concentration of 1/1250 microg with compound at 400 uM
# [24] = species: Homo sapiens; assay: Mitogen-induced human lymphocyte proliferation measured by incorporation of [3H]thymidine in lymphocytes with Concanavalin A at a concentration of 0.25 microg with compound at 400 uM
# [25] = species: Homo sapiens; assay: Mitogen-induced human lymphocyte proliferation measured by incorporation of [3H]thymidine in lymphocytes with Concanavalin A (Con A) at a concentration of 0.25 microg with compound at 0.1 uM
# [26] = species: Homo sapiens; assay: Mitogen-induced human lymphocyte proliferation measured by incorporation of [3H]thymidine in lymphocytes with Pokeweed mitogen at a concentration of 1/1250 microg with compound at 0.1 uM
# [27] = species: Homo sapiens; assay: Mitogen-induced human lymphocyte proliferation measured by incorporation of [3H]thymidine in lymphocytes with Phytohemagglutininin at a concentration of 1 ug with compound at 0.1 uM
# [28] = species: Homo sapiens; assay: Mitogen-induced human lymphocyte proliferation measured by incorporation of [3H]thymidine in lymphocytes with Pokeweed mitogen at a concentration of 1/5000 microg with compound at 0.1 uM
# [29] = species: Homo sapiens; assay: Mitogen-induced human lymphocyte proliferation measured by incorporation of [3H]thymidine in lymphocytes with Concanavalin A (Con A) at a concentration of 0.25 microg with compound at 1 uM
# [30] = species: Homo sapiens; assay: Mitogen-induced human lymphocyte proliferation measured by incorporation of [3H]thymidine in lymphocytes with Phytohemagglutininin at a concentration of 1 ug with compound at 1 uM
# [31] = species: Homo sapiens; assay: Mitogen-induced human lymphocyte proliferation measured by incorporation of [3H]thymidine in lymphocytes with Phytohemagglutininin at a concentration of 0.25 ug with out compound
# [32] = species: Homo sapiens; assay: Mitogen-induced human lymphocyte proliferation measured by incorporation of [3H]thymidine in lymphocytes with Phytohemagglutininin at a concentration of 0.25 ug with compound at 400 uM
# [33] = species: Homo sapiens; assay: Mitogen-induced human lymphocyte proliferation measured by incorporation of [3H]thymidine in lymphocytes with Concanavalin A (Con A) at a concentration of 0.5 ug with compound at 50 uM
# [34] = species: Homo sapiens; assay: Mitogen-induced human lymphocyte proliferation measured by incorporation of [3H]-thymidine in lymphocytes with Phytohemagglutininin at a concentration of 1 ug with compound at 10 uM
# [35] = species: Homo sapiens; assay: Mitogen-induced human lymphocyte proliferation measured by incorporation of [3H]thymidine in lymphocytes with Pokeweed mitogen at a concentration of 1/1250 ug with out compound
# [36] = species: Homo sapiens; assay: Mitogen-induced human lymphocyte proliferation measured by incorporation of [3H]thymidine in lymphocytes with Phytohemagglutininin at a concentration of 0.25 ug with compound at 10 uM
# [37] = species: Homo sapiens; assay: Mitogen-induced human lymphocyte proliferation measured by incorporation of [3H]-thymidine in lymphocytes with Phytohemagglutininin at a concentration of 0.25 ug with compound at 0.1 uM
# [38] = species: Homo sapiens; assay: Mitogen-induced human lymphocyte proliferation measured by incorporation of [3H]thymidine in lymphocytes with Concanavalin A at a concentration of 0.5 ug with compound at 400 uM
# [39] = species: Homo sapiens; assay: Mitogen-induced human lymphocyte proliferation measured by incorporation of [3H]thymidine in lymphocytes with Phytohemagglutininin at a concentration of 0.25 ug with compound at 50 uM
# [40] = species: Homo sapiens; assay: Mitogen-induced human lymphocyte proliferation measured by incorporation of [3H]thymidine in lymphocytes with Concanavalin A (Con A) at a concentration of 0.5 ug with out compound
# [41] = species: Homo sapiens; assay: Mitogen-induced human lymphocyte proliferation measured by incorporation of [3H]thymidine in lymphocytes with Phytohemagglutininin at a concentration of 0.25 ug with compound at 1 uM
# [42] = species: Homo sapiens; assay: Mitogen-induced human lymphocyte proliferation measured by incorporation of [3H]thymidine in lymphocytes with Concanavalin A (Con A) at a concentration of 0.5 ug with compound at 0.1 uM
# [43] = species: Homo sapiens; assay: Mitogen-induced human lymphocyte proliferation measured by incorporation of [3H]-thymidine in lymphocytes with Concanavalin A (Con A) at a concentration of 0.5 ug with compound at 1 uM
# [44] = species: Homo sapiens; assay: Mitogen-induced human lymphocyte proliferation measured by incorporation of [3H]thymidine in lymphocytes with Pokeweed mitogen at a concentration of 1/1250 ug with compound at 1 uM
# [45] = species: Homo sapiens; assay: Mitogen-induced human lymphocyte proliferation measured by incorporation of [3H]thymidine in lymphocytes with Concanavalin A (Con A) at a concentration of 0.5 ug with compound at 10 uM
# [46] = species: Homo sapiens; assay: Mitogen-induced human lymphocyte proliferation measured by incorporation of [3H]thymidine in lymphocytes with Pokeweed mitogen at a concentration of 1/1250 ug with compound at 400 uM
# [47] = species: Homo sapiens; assay: Mitogen-induced human lymphocyte proliferation measured by incorporation of [3H]thymidine in lymphocytes with Pokeweed mitogen at a concentration of 1/1250 ug with compound at 50 uM
# [48] = species: Homo sapiens; assay: Mitogen-induced human lymphocyte proliferation measured by incorporation of [3H]thymidine in lymphocytes with Pokeweed mitogen at a concentration of 1/1250 ug with compound at 10 uM
# [49] = species: Homo sapiens; assay: Mitogen-induced human lymphocyte proliferation measured by incorporation of [3H]thymidine in lymphocytes with Pokeweed mitogen at a concentration of 1/1250 ug with compound at 0.1 uM
structure (smiles),measurement,setting,value
Nc1nc(O)c2c(C(=O)O)cn(C3O[C@H](CO)[C@@H](O)[C@H]3O)c2n1 (some centres undefined),Incorporation,[1],10034
same,Incorporation,[2],40349
same,Incorporation,[3],17242
same,Incorporation,[4],15707
same,Incorporation,[5],36835
same,Incorporation,[6],1268
same,Incorporation,[7],42403
same,Incorporation,[8],42486
same,Incorporation,[9],14865
same,Incorporation,[10],54392
same,Incorporation,[11],55547
same,Incorporation,[12],42735
same,Incorporation,[13],15708
same,Incorporation,[14],12990
same,Incorporation,[15],13682
same,Incorporation,[16],43600
same,Incorporation,[17],53594
same,Incorporation,[18],42670
same,Incorporation,[19],50597
same,Incorporation,[20],44790
same,Incorporation,[21],40053
same,Incorporation,[22],52418
same,Incorporation,[23],14118
same,Incorporation,[24],9782
same,Incorporation,[25],45121
same,Incorporation,[26],51152
same,Incorporation,[27],38824
same,Incorporation,[28],47896
same,Incorporation,[29],43757
same,Incorporation,[30],45537
Nc1nc2c(c(C(=O)N[C@@H](CCC(=O)O)C(=O)O)nn2C2O[C@H](CO)[C@@H](O)[C@H]2O)c(=O)[nH]1 (some centres undefined),Incorporation,[31],6506
same,Incorporation,[32],13781
same,Incorporation,[33],41114
same,Incorporation,[34],50830
same,Incorporation,[35],40443
same,Incorporation,[2],56641
same,Incorporation,[36],16224
same,Incorporation,[37],8002
same,Incorporation,[5],50246
same,Incorporation,[38],45681
same,Incorporation,[39],14187
same,Incorporation,[40],26393
same,Incorporation,[11],44427
same,Incorporation,[41],12995
same,Incorporation,[42],43786
same,Incorporation,[43],49196
same,Incorporation,[44],56187
same,Incorporation,[45],47573
same,Incorporation,[46],49556
same,Incorporation,[47],53140
same,Incorporation,[48],49105
same,Incorporation,[27],49176
same,Incorporation,[49],51918
same,Incorporation,[30],50330
